Assay results: patent US10654832B2, “3-(benzoimidazol-2-YL)-indazole inhibitors of the Wnt signaling pathway and therapeutic uses thereof” (Samumed, LLC, priority 2013, dated 2020)

Test system: Wnt activity (wnt-responsive SP5 promoter luciferase reporter in SW480 cells)
Assay: Wnt activity reporter assay (SP5 promoter-firefly luciferase in SW480 cells)
Format: cell-based
Conditions: Homo sapiens; SW480 colon cancer cells with SP5 promoter luciferase reporter; 24 h after compound addition; half-log dilutions, three micromolar top concentration; normalized to DMSO; read-out: Wnt inhibition
Text: The above synthesized compounds were screened using the assay procedure for Wnt activity described below.
Reporter cell lines were generated by stably transducing cells of cancer cell lines (e.g., colon cancer) with a lentiviral construct that include a wnt-responsive promoter driving expression of the firefly luciferase gene.
Lentiviral constructs were made in which the SP5 promoter, a promoter having eight TCF/LEF binding sites derived from the SP5 promoter, was linked upstream of the firefly luciferase gene. The lentiviral constructs included a hygromycin resistance gene as a selectable marker. The SP5 promoter construct was used to transduce SW480 cells, a colon cancer cell line having a mutated APC gene that generates a truncated APC protein, leading to de-regulated accumulation of β-catenin.
Cultured SW480 cells bearing a reporter construct were distributed at approximately 10,000 cells per well into 384 well multiwell plates. Compounds were then added to the wells in half-log dilutions using a three micromolar top concentration. A series of control wells for each cell type received only buffer and compound solvent. Twenty-four hours after the addition of compound, reporter activity for luciferases was assayed, for example, by addition of the BrightGlo luminescence reagent (Promega) and the Victor3 plate reader (Perkin Elmer). Readings were normalized to DMSO only treated cells, and normalized activities were then used for the IC50 calculations.

Row | SMILES | IC50
1 | Nc1cncc(-c2ccc3[nH]nc(-c4nc5c(-c6cccnc6)cccc5[nH]4)c3c2)c1 [Compound 75, 5-(3-(4-(Pyridin-3-yl)-1H-benzo[d]imidazol-2-yl)-1H-indazol-5-yl)pyridin-3-amine] | 6 nM
2 | Cc1ccncc1-c1ccc2[nH]nc(-c3nc4c(-c5cccnc5)cccc4[nH]3)c2c1 [Compound 77, 5-(4-Methylpyridin-3-yl)-3-(4-(pyridin-3-yl)-1H-benzo[d]imidazol-2-yl)-1H-indazole] | 63 nM
3 | CN(C)c1cncc(-c2ccc3[nH]nc(-c4nc5c(-c6cccnc6)cccc5[nH]4)c3c2)c1 [Compound 79, N,N-Dimethyl-5-(3-(4-(pyridin-3-yl)-1H-benzo[d]imidazol-2-yl)-1H-indazol-5-yl)pyridin-3-amine] | 45 nM
4 | CC(C)Nc1cncc(-c2ccc3[nH]nc(-c4nc5c(-c6cccnc6)cccc5[nH]4)c3c2)c1 [Compound 84, N-Isopropyl-5-(3-(4-(pyridin-3-yl)-1H-benzo[d]imidazol-2-yl)-1H-indazol-5-yl)pyridin-3-amine] | 13 nM
5 | CC(C)(C)CC(=O)Nc1cncc(-c2ccc3[nH]nc(-c4nc5c(-c6cccnc6)cccc5[nH]4)c3c2)c1 [Compound 88, 3,3-Dimethyl-N-(5-(3-(4-(pyridin-3-yl)-1H-benzo[d]imidazol-2-yl)-1H-indazol-5-yl)pyridin-3-yl)butanamide] | 135 nM
6 | CCCC(=O)Nc1cncc(-c2ccc3[nH]nc(-c4nc5c(-c6cccnc6)cccc5[nH]4)c3c2)c1 [Compound 89, N-(5-(3-(4-(Pyridin-3-yl)-1H-benzo[d]imidazol-2-yl)-1H-indazol-5-yl)pyridin-3-yl)butyramide] | 4 nM
7 | CCCCC(=O)Nc1cncc(-c2ccc3[nH]nc(-c4nc5c(-c6cccnc6)cccc5[nH]4)c3c2)c1 [Compound 90, N-(5-(3-(4-(Pyridin-3-yl)-1H-benzo[d]imidazol-2-yl)-1H-indazol-5-yl)pyridin-3-yl)pentanamide] | 11 nM
8 | O=C(Nc1cncc(-c2ccc3[nH]nc(-c4nc5c(-c6cccnc6)cccc5[nH]4)c3c2)c1)C1CCC1 [Compound 92, N-(5-(3-(4-(Pyridin-3-yl)-1H-benzo[d]imidazol-2-yl)-1H-indazol-5-yl)pyridin-3-yl)cyclobutanecarboxamide] | 8 nM
9 | O=C(Nc1cncc(-c2ccc3[nH]nc(-c4nc5c(-c6cccnc6)cccc5[nH]4)c3c2)c1)C1CCCCC1 [Compound 94, N-(5-(3-(4-(Pyridin-3-yl)-1H-benzo[d]imidazol-2-yl)-1H-indazol-5-yl)pyridin-3-yl)cyclohexanecarboxamide] | 121 nM
10 | c1ccc(CNCc2cncc(-c3ccc4[nH]nc(-c5nc6c(-c7cccnc7)cccc6[nH]5)c4c3)c2)cc1 [Compound 95, N-Benzyl-1-(5-(3-(4-(pyridin-3-yl)-1H-benzo[d]imidazol-2-yl)-1H-indazol-5-yl)pyridin-3-yl)methanamine] | 163 nM
11 | CC(C)(C)C(=O)Nc1cncc(-c2ccc3[nH]nc(-c4nc5c(-c6ccncc6)cccc5[nH]4)c3c2)c1 [Compound 104, N-(5-(3-(4-(Pyridin-4-yl)-1H-benzo[d]imidazol-2-yl)-1H-indazol-5-yl)pyridin-3-yl)pivalamide] | 65 nM
12 | O=C(Cc1ccccc1)Nc1cncc(-c2ccc3[nH]nc(-c4nc5c(-c6ccncc6)cccc5[nH]4)c3c2)c1 [Compound 106, 2-Phenyl-N-(5-(3-(4-(pyridin-4-yl)-1H-benzo[d]imidazol-2-yl)-1H-indazol-5-yl)pyridin-3-yl)acetamide] | 1930 nM
13 | CC(C)Nc1cncc(-c2ccc3[nH]nc(-c4nc5c(-c6ccncc6)cccc5[nH]4)c3c2)c1 [Compound 108, N-Isopropyl-5-(3-(4-(pyridin-4-yl)-1H-benzo[d]imidazol-2-yl)-1H-indazol-5-yl)pyridin-3-amine] | 16 nM
14 | c1cc(-c2ccncc2)c2nc(-c3n[nH]c4ccc(-c5cncc(CN6CCCC6)c5)cc34)[nH]c2c1 [Compound 110, 3-(4-(Pyridin-4-yl)-1H-benzo[d]imidazol-2-yl)-5-(5-(pyrrolidin-1-ylmethyl)pyridin-3-yl)-1H-indazole] | 205 nM
15 | CCCCC(=O)Nc1cncc(-c2ccc3[nH]nc(-c4nc5c(-c6ccncc6)cccc5[nH]4)c3c2)c1 [Compound 114, N-(5-(3-(4-(Pyridin-4-yl)-1H-benzo[d]imidazol-2-yl)-1H-indazol-5-yl)pyridin-3-yl)pentanamide] | 67 nM
16 | O=C(Nc1cncc(-c2ccc3[nH]nc(-c4nc5c(-c6ccncc6)cccc5[nH]4)c3c2)c1)C1CCC1 [Compound 116, N-(5-(3-(4-(Pyridin-4-yl)-1H-benzo[d]imidazol-2-yl)-1H-indazol-5-yl)pyridin-3-yl)cyclobutanecarboxamide] | 23 nM

Row | SMILES | IC50
17 | O=C(Nc1cncc(-c2ccc3[nH]nc(-c4nc5c(-c6ccncc6)cccc5[nH]4)c3c2)c1)C1CCCC1 [Compound 117, N-(5-(3-(4-(Pyridin-4-yl)-1H-benzo[d]imidazol-2-yl)-1H-indazol-5-yl)pyridin-3-yl)cyclopentanecarboxamide] | 54 nM
18 | O=C(Nc1cncc(-c2ccc3[nH]nc(-c4nc5c(-c6ccncc6)cccc5[nH]4)c3c2)c1)C1CCCCC1 [Compound 118, N-(5-(3-(4-(Pyridin-4-yl)-1H-benzo[d]imidazol-2-yl)-1H-indazol-5-yl)pyridin-3-yl)cyclohexanecarboxamide] | 1460 nM
19 | CC(C)CC(=O)Nc1cncc(-c2ccc3[nH]nc(-c4nc5c(-c6ccccn6)cccc5[nH]4)c3c2)c1 [Compound 122, 3-Methyl-N-(5-(3-(4-(pyridin-2-yl)-1H-benzo[d]imidazol-2-yl)-1H-indazol-5-yl)pyridin-3-yl)butanamide] | 11 nM
20 | Cc1ccncc1-c1ccc2[nH]nc(-c3nc4c(-c5ccccn5)cccc4[nH]3)c2c1 [Compound 125, 5-(4-Methylpyridin-3-yl)-3-(4-(pyridin-2-yl)-1H-benzo[d]imidazol-2-yl)-1H-indazole] | 54 nM
21 | CN(C)c1cncc(-c2ccc3[nH]nc(-c4nc5c(-c6ccccn6)cccc5[nH]4)c3c2)c1 [Compound 127, N,N-Dimethyl-5-(3-(4-(pyridin-2-yl)-1H-benzo[d]imidazol-2-yl)-1H-indazol-5-yl)pyridin-3-amine] | 32 nM
22 | CC(C)C(=O)Nc1cncc(-c2ccc3[nH]nc(-c4nc5c(-c6ccccn6)cccc5[nH]4)c3c2)c1 [Compound 129, N-(5-(3-(4-(Pyridin-2-yl)-1H-benzo[d]imidazol-2-yl)-1H-indazol-5-yl)pyridin-3-yl)isobutyramide] | 21 nM
23 | CN(C)Cc1cncc(-c2ccc3[nH]nc(-c4nc5c(-c6ccccn6)cccc5[nH]4)c3c2)c1 [Compound 133, N,N-Dimethyl-1-(5-(3-(4-(pyridin-2-yl)-1H-benzo[d]imidazol-2-yl)-1H-indazol-5-yl)pyridin-3-yl)methanamine] | 127 nM
24 | c1ccc(-c2cccc3[nH]c(-c4n[nH]c5ccc(-c6cncc(CN7CCCC7)c6)cc45)nc23)nc1 [Compound 134, 3-(4-(Pyridin-2-yl)-1H-benzo[d]imidazol-2-yl)-5-(5-(pyrrolidin-1-ylmethyl)pyridin-3-yl)-1H-indazole] | 219 nM
25 | CCCCC(=O)Nc1cncc(-c2ccc3[nH]nc(-c4nc5c(-c6ccccn6)cccc5[nH]4)c3c2)c1 [Compound 138, N-(5-(3-(4-(Pyridin-2-yl)-1H-benzo[d]imidazol-2-yl)-1H-indazol-5-yl)pyridin-3-yl)pentanamide] | 18 nM
26 | O=C(Nc1cncc(-c2ccc3[nH]nc(-c4nc5c(-c6ccccn6)cccc5[nH]4)c3c2)c1)C1CCC1 [Compound 140, N-(5-(3-(4-(Pyridin-2-yl)-1H-benzo[d]imidazol-2-yl)-1H-indazol-5-yl)pyridin-3-yl)cyclobutanecarboxamide] | 8 nM
27 | O=C(Nc1cncc(-c2ccc3[nH]nc(-c4nc5c(-c6ccccn6)cccc5[nH]4)c3c2)c1)C1CCCCC1 [Compound 142, N-(5-(3-(4-(Pyridin-2-yl)-1H-benzo[d]imidazol-2-yl)-1H-indazol-5-yl)pyridin-3-yl)cyclohexanecarboxamide] | 155 nM
28 | c1ccc(-c2cccc3[nH]c(-c4n[nH]c5ccc(-c6cncc(CNCC7CCCC7)c6)cc45)nc23)nc1 [Compound 144, 1-Cyclopentyl-N-((5-(3-(4-(pyridin-2-yl)-1H-benzo[d]imidazol-2-yl)-1H-indazol-5-yl)pyridin-3-yl)methyl)methanamine] | 1180 nM
29 | CC(C)CC(=O)Nc1cncc(-c2ccc3[nH]nc(-c4nc5c(N6CCCCC6)cccc5[nH]4)c3c2)c1 [Compound 146, 3-Methyl-N-(5-(3-(4-(piperidin-1-yl)-1H-benzo[d]imidazol-2-yl)-1H-indazol-5-yl)pyridin-3-yl)butanamide] | 58 nM
30 | CN(C)c1cncc(-c2ccc3[nH]nc(-c4nc5c(N6CCCCC6)cccc5[nH]4)c3c2)c1 [Compound 151, N,N-Dimethyl-5-(3-(4-(piperidin-1-yl)-1H-benzo[d]imidazol-2-yl)-1H-indazol-5-yl)pyridin-3-amine] | 41 nM
31 | O=C(Nc1cncc(-c2ccc3[nH]nc(-c4nc5c(N6CCCCC6)cccc5[nH]4)c3c2)c1)c1ccccc1 [Compound 155, N-(5-(3-(4-(Piperidin-1-yl)-1H-benzo[d]imidazol-2-yl)-1H-indazol-5-yl)pyridin-3-yl)benzamide] | 289 nM
